Source: patent publication US9309254B2, “Pyrimidinyl-diazospiro compounds” (CONVERGENCE PHARMACEUTICALS LIMITED, priority 2012, dated 2016)
Where a name gives a salt, the structure may show the parent alone. Read-outs that look alike come from different tables or passages of the source.

Target: T1, hNaV1.7 (Homo sapiens, UniProt Q15858)
T1 construct: expressed in transfected cells; host or cells: HEK293
Experiment: QPatch NaV1.7 assay
Assay type: cell-based
Conditions: HEK293-hNaV1.7 cells, QPatch16x
Description: The compounds of the invention were tested in a QPatch NaV1.7 assay.
HEK293-hNaV1.7 cells were grown in DMEM-F12+10% FBS culture media at 37° C. At a confluency of 50-70% cells were dissociated from culture flasks & triturated to ensure unicellular cell suspension; cell density was measured & adjusted to 2-3×10^6 cells/ml. Recordings were obtained using QPatch16x. The external solution was (in mM): NaCl, 128; KCl, 5; MgCl2, 2; CaCl2, 2; Glucose, 30; HEPES, 15; pH 7.3, 305-315 mOsm. Following seal formation and whole-cell access using internal solution (containing in mM: CsF, 135; EGTA/CsOH, 1/5; HEPES 10; NaCl, 10; pH 7.3, 310-320mOsM), voltage pulse protocols were applied. Initially a steady state inactivation voltage protocol was used to determine the half-maximal voltage for steady state inactivation (V1/2 SSI). Two holding voltages were used to determine test drug inhibition: −90 mV, where most of the channels are in a closed state; and V1/2 SSI, where half of the channels are inactivated. Currents were elicited every 10 seconds by stepping to a membrane potential of 0 mV for 20 ms. Four-point cumulative concentration responses were derived by determining the peak current amplitude at each concentration of test drug over 120 second application. Curves were fitted with the Hill equation yielding pIC50 values at −90 mV and V1/2 SSI holding potentials.

[1] = holding voltage V1/2 SSI, where half of the channels are inactivated, read-out: QP Nav1.7 SSI vhalf pIC50 (converted)
[2] = holding voltage −90 mV, where most of the channels are in a closed state, read-out: QP Nav1.7 - 90 mV pIC50 (converted)

T1 sequence (Q15858 whole entry): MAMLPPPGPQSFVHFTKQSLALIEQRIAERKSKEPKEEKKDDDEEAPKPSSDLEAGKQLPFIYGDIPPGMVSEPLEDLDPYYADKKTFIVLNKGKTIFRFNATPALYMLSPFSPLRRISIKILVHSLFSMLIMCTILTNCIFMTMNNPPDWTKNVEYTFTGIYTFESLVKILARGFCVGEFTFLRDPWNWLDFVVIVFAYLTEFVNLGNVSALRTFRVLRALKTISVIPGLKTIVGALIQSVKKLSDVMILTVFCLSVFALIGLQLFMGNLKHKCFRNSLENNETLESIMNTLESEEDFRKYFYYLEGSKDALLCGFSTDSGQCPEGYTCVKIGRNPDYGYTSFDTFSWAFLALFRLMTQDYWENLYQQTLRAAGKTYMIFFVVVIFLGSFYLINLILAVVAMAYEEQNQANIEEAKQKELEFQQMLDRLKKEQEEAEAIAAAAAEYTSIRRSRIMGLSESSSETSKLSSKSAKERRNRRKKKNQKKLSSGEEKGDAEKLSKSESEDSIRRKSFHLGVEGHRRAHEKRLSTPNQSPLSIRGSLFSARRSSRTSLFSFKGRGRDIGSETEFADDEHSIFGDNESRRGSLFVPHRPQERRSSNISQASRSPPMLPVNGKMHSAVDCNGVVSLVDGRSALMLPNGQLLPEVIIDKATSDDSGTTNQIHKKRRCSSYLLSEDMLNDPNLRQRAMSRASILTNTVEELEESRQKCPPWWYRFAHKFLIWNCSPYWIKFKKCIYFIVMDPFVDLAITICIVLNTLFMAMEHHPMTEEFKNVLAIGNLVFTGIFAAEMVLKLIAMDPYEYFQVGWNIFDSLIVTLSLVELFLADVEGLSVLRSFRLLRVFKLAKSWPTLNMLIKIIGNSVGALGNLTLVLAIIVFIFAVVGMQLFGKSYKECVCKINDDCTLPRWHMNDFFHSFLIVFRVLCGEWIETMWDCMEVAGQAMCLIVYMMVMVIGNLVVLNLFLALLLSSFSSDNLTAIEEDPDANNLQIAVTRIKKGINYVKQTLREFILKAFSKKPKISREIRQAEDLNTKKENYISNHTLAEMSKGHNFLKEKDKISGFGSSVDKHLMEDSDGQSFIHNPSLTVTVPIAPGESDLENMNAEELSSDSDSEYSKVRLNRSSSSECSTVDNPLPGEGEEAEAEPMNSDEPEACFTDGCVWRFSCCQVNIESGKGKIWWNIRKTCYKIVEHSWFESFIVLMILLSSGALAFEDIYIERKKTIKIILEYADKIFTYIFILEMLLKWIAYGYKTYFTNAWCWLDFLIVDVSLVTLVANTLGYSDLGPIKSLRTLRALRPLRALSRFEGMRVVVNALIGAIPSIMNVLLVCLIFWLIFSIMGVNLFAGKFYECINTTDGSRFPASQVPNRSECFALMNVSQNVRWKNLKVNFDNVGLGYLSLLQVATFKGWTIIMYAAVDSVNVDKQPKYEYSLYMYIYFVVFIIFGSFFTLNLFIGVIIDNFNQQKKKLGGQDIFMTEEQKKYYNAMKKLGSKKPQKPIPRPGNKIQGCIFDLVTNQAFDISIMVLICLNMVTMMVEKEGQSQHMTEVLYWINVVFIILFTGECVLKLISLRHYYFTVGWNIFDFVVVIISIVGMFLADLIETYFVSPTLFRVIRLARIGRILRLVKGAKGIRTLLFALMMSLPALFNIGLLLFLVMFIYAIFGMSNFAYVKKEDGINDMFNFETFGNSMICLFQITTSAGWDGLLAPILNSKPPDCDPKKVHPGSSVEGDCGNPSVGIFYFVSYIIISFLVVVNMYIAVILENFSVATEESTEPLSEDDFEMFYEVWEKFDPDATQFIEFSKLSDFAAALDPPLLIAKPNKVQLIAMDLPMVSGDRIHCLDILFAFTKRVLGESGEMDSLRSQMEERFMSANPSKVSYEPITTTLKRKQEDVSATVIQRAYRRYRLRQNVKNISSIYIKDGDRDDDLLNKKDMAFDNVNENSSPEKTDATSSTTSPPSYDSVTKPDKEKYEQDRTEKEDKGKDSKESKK

`Cc1cc(-c2ccc(OC(F)(F)F)cc2)nc([C@@H]2CC[C@]3(CCN(C)C3=O)N2)n1` [Example 29, (2S,5R)-7-Methyl-2-[4-methyl-6-[4-(trifluoromethoxy)phenyl]pyrimidin-2-yl]-1,7-diazaspiro[4.4]nonan-6-one hydrochloride] was tested, and the IC50 [1] was 12.6 µM and the IC50 [2] was 126 µM.

Work on `Cc1cc(-c2ccc(OC(F)(F)F)cc2)nc([C@H]2CC[C@]3(CCN(C)C3=O)N2)n1` [Example 30, (2R,5R)-7-Methyl-2-[4-methyl-6-[4-(trifluoromethoxy)phenyl]pyrimidin-2-yl]-1,7-diazaspiro[4.4]nonan-6-one hydrochloride] yielded an IC50 [1] of 20 µM and an IC50 [2] of 316 µM.

With `Cc1cc(-c2cc(OC(F)(F)F)ccc2F)nc([C@@H]2CC[C@@]3(CCN(C)C3=O)N2)n1` [Example 31, (2S,5S)-2-[4-[2-Fluoro-5-(trifluoromethoxy)phenyl]-6-methyl-pyrimidin-2-yl]-7-methyl-1,7-diazaspiro[4.4]nonan-6-one hydrochloride] the IC50 [1] was 3.16 µM and the IC50 [2] was 100 µM.

`Cc1cc(-c2cc(OC(F)(F)F)ccc2F)nc([C@H]2CC[C@@]3(CCN(C)C3=O)N2)n1` [Example 32, (2R,5S)-2-[4-[2-Fluoro-5-(trifluoromethoxy)phenyl]-6-methyl-pyrimidin-2-yl]-7-methyl-1,7-diazaspiro[4.4]nonan-6-one hydrochloride] was tested, and the IC50 [1] was 2.51 µM and the IC50 [2] was 39.8 µM.

Molecule `Cc1cc(-c2cc(OC(F)(F)F)ccc2F)nc([C@H]2CC[C@]3(CCN(C)C3=O)N2)n1` [Example 33, (2R,5R)-2-[4-[2-Fluoro-5-(trifluoromethoxy)phenyl]-6-methyl-pyrimidin-2-yl]-7-methyl-1,7-diazaspiro[4.4]nonan-6-one hydrochloride] has an IC50 [1] of 2 µM and an IC50 [2] of 20 µM.

With `Cc1cc(-c2cc(OC(F)(F)F)ccc2F)nc([C@@H]2CC[C@]3(CCN(C)C3=O)N2)n1` [Example 34, (2S,5R)-2-[4-[2-Fluoro-5-(trifluoromethoxy)phenyl]-6-methyl-pyrimidin-2-yl]-7-methyl-1,7-diazaspiro[4.4]nonan-6-one hydrochloride] the IC50 [1] was 7.94 µM and the IC50 [2] was 79.4 µM.

With `CCOc1ccc(F)c(-c2cc(C)nc([C@H]3CC[C@@]4(CCCNC4=O)N3)n2)c1` [Example 37, hydrochloride] the IC50 [1] was 1.58 µM and the IC50 [2] was 15.8 µM.

`CCOc1ccc(F)c(-c2cc(C)nc([C@@H]3CC[C@@]4(CCCNC4=O)N3)n2)c1` [Example 38, hydrochloride] showed an IC50 [1] of 3.16 µM and an IC50 [2] of 50.1 µM.

`Cc1cc(-c2ccc(C(F)(F)F)cc2)nc([C@H]2CC[C@@]3(CCNC3=O)N2)n1` [Example 39, (2R,5S)-2-[4-Methyl-6-[4-(trifluoromethyl)phenyl]pyrimidin-2-yl]-1,7-diazaspiro[4.4]-nonan-6-one hydrochloride] was tested, and the IC50 [1] was 15.8 µM and the IC50 [2] was 126 µM.

In the case of `Cc1cc(-c2ccc(C(F)(F)F)cc2)nc([C@@H]2CC[C@]3(CCNC3=O)N2)n1` [Example 40, (2S,5R)-2-[4-Methyl-6-[4-(trifluoromethyl)phenyl]-pyrimidin-2-yl]-1,7-diazaspiro[4.4]nonan-6-one hydrochloride], the IC50 [1] is reported as 31.6 µM and the IC50 [2] is reported as 158 µM.

For `Cc1cc(-c2ccc(C(F)(F)F)cc2)nc([C@@H]2CC[C@@]3(CCNC3=O)N2)n1` [Example 41, (2S,5S)-2-[4-Methyl-6-[4(trifluoromethyl)-phenyl]-pyrimidin-2-yl]-1,7-diazaspiro[4.4]nonan-6-one hydrochloride], the IC50 [1] was 2.51 µM and the IC50 [2] was 25.1 µM.

Molecule `Cc1cc(-c2ccc(C(F)(F)F)cc2)nc([C@H]2CC[C@]3(CCNC3=O)N2)n1` [Example 42, (2R,5R)-2-[4-Methyl-6-[4-(trifluoromethyl)phenyl]pyrimidin-2-yl]-1,7-diazaspiro[4.4]nonan-6-one hydrochloride] has an IC50 [1] of 50.1 µM and an IC50 [2] of 501 µM.

`Cc1cc(-c2ccc(C(F)(F)F)cc2)nc([C@H]2CC[C@@]3(CC(C)(C)NC3=O)N2)n1` [Example 43, (2R,5S)-8,8-Dimethyl-2-[4-methyl-6-[4-(trifluoromethyl)phenyl]pyrimidin-2-yl]-1,7-diazaspiro[4.4]nonan-6-one hydrochloride] was tested, and the IC50 [1] was 5.01 µM and the IC50 [2] was 31.6 µM.

`Cc1cc(-c2ccc(C(F)(F)F)cc2)nc([C@@H]2CC[C@@]3(CC(C)(C)NC3=O)N2)n1` [Example 44, (2S,5S)-8,8-Dimethyl-2-[4-methyl-6-[4-(trifluoromethyl)phenyl]pyrimidin-2-yl]-1,7-diazaspiro[4.4]nonan-6-one hydrochloride] gave an IC50 [1] of 39.8 µM and an IC50 [2] of 158 µM.

`Cc1cc(-c2ccc(C(F)(F)F)cc2)nc([C@@H]2CC[C@]3(CC(C)(C)NC3=O)N2)n1` [Example 45, (2S,5R)-8,8-Dimethyl-2-[4-methyl-6-[4-(trifluoromethyl)phenyl]pyrimidin-2-yl]-1,7-diazaspiro[4.4]nonan-6-one hydrochloride] showed an IC50 [1] of 20 µM and an IC50 [2] of 100 µM.

`Cc1cc(-c2ccc(C(F)(F)F)cc2)nc([C@H]2CC[C@]3(CC(C)(C)NC3=O)N2)n1` [Example 46, (2R,5R)-8,8-Dimethyl-2-[4-methyl-6-[4-(trifluoromethyl)phenyl]pyrimidin-2-yl]-1,7-diazaspiro[4.4]nonan-6-one hydrochloride] showed an IC50 [1] of 3.16 µM and an IC50 [2] of 25.1 µM.
